Results reported in patent US10604741B2, “Compositions and methods for enhancing virus replication” (TURNSTONE LIMITED PARTNERSHIP, priority 2013, dated 2020).

Experiments:
[1] = system: VSVΔ51 in 786-0 cells; format: cell-based, human
[2] = system: VSVΔ51 in 786-0 cells; format: cell-based, human; conditions: 24 hours

Row | Molecule | effect on FGF2-induced enhancement of virus replication [1] | FGF2-enhancement of virus replication at different MOIs [2]
1 | CCN(CC)CCCCNc1ncc2cc(-c3cc(OC)cc(OC)c3)c(NC(=O)NC(C)(C)C)nc2n1 [PD173074] | reduces FGF2-induced enhancement of virus replication | –
2 | FGF2: recombinant human FGF2 protein; amino acid sequence shown in SEQ ID NO: 9 | – | independent of the MOIs used
